Source: patent publication US12030904B2 (priority 2020, dated 2024)
Read-outs that look alike come from different tables or passages of the source.

Experiments:
[1] = tested on: Recombinant Respiratory Syncytial virus strain A2 containing the firefly luciferase reporter (RSV-Fluc); experiment: microbe, parasite or virus in culture; type: cell-based; conditions: human respiratory syncytial virus, NHBE
SARS-CoV-2 = experiment: microbe, parasite or virus in culture; type: cell-based; conditions: Severe acute respiratory syndrome coronavirus 2, read-out: SARS EC50
MT4 cytotoxicity (CC50) = conditions: human, MT4 cells

SMILES | EC50 ([1]; read-out: RSV EC50, Table 4) | EC50 (SARS-CoV-2) | CC50 (MT4 cytotoxicity (CC50); MT4 CC50, Table 4) | EC50 ([1]; 72 h, read-out: RSV-Fluc EC50 (NHBE), NHBE cells, three days, Table 2) | EC50 ([1]; read-out: RSV EC50, Table 2a) | CC50 (MT4 cytotoxicity (CC50); MT4 CC50, Table 2a)
CCCCCCCCCCCCCCCCCCOC[C@H](COP(=O)(O)OC[C@H]1O[C@@](C#N)(c2ccc3c(N)ncnn23)[C@H](O)[C@@H]1O)OCc1ccc(Cl)c(C#N)c1 [Example 108, [(2R,3S,4R,5R)-5-(4-aminopyrrolo[2,1-f][1,2,4]triazin-7-yl)-5-cyano-3,4-dihydroxy-tetrahydrofuran-2-yl]methyl [(2R)-2-[(4-chloro-3-cyano-phenyl)methoxy]-3-octadecoxy-propyl] hydrogen phosphate] | 83 nM | 220 nM | 713 nM |  |  | 
CCCCCCCCCCCCCCCCOC[C@H](COP(=O)(O)OC[C@H]1O[C@@](C#N)(c2ccc3c(N)ncnn23)[C@H](O)[C@@H]1O)OCc1cccc(C#N)c1 [Example 95, ((2R,3S,4R,5R)-5-(4-aminopyrrolo[2,1-f][1,2,4]triazin-7-yl)-5-cyano-3,4-dihydroxytetrahydrofuran-2-yl)methyl ((R)-2-((3-cyanobenzyl)oxy)-3-(hexadecyloxy)propyl) hydrogen phosphate] | 20 nM | 37 nM | 252 nM |  |  | 
CCCCCCCCCCCCCCCCCCOC[C@H](COP(=O)(O)OC[C@H]1O[C@@](C#N)(c2ccc3c(N)ncnn23)[C@H](O)[C@@H]1O)Oc1ccc(C#N)cn1 [Example 76, ((2R,3S,4R,5R)-5-(4-aminopyrrolo[2,1-f][1,2,4]triazin-7-yl)-5-cyano-3,4-dihydroxytetrahydrofuran-2-yl)methyl ((R)-2-((5-cyanopyridin-2-yl)oxy)-3-(octadecyloxy)propyl) hydrogen phosphate] | 31 nM | 48 nM | 295 nM |  |  | 
CCCCCCCCCCCCCCCCCCOC[C@H](COP(=O)(O)OC[C@H]1O[C@@](C#N)(c2ccc3c(N)ncnn23)[C@H](O)[C@@H]1O)Oc1ccccc1C#N [Example 73, ((2R,3S,4R,5R)-5-(4-aminopyrrolo[2,1-f][1,2,4]triazin-7-yl)-5-cyano-3,4-dihydroxytetrahydrofuran-2-yl)methyl ((R)-2-(2-cyanophenoxy)-3-(octadecyloxy)propyl) hydrogen phosphate] | 107 nM | 150 nM | 1200 nM |  |  | 
CCCCCCCCCCCCOCCCOP(=O)(O)OC[C@H]1O[C@@](C#N)(c2ccc3c(N)ncnn23)[C@H](O)[C@@H]1O [Example 57, ((2R,3S,4R,5R)-5-(4-Aminopyrrolo[2,1-f][1,2,4]triazin-7-yl)-5-cyano-3,4-dihydroxytetrahydrofuran-2-yl)methyl (3-(dodecyloxy)propyl) hydrogen phosphate] |  | 10000 nM |  | 2200 nM | 2180 nM | 50000 nM
CCCCCCCCCCCCCCCCCCOC[C@H](COP(=O)(O)OC[C@H]1O[C@@](C#N)(c2ccc3c(N)ncnn23)[C@H](O)[C@@H]1O)n1cnc(C#N)c1 [Example 79, ((2R,3S,4R,5R)-5-(4-aminopyrrolo[2,1-f][1,2,4]triazin-7-yl)-5-cyano-3,4-dihydroxytetrahydrofuran-2-yl)methyl ((R)-2-(4-cyano-1H-imidazol-1-yl)-3-(octadecyloxy)propyl) hydrogen phosphate] | 103 nM | 330 nM | 10100 nM |  |  | 
